Test results as given in patent US8163160B2, “Biosensor having improved hematocrit and oxygen biases” (Abbott Diabetes Care Inc., priority 2002, dated 2012).
In brackets after ≈: the same amount, converted by molar mass.

Assay: Solubility tests in water
Format: physicochemical
Method: Solubility tests in water were performed on the new redox mediators in comparison with the standard PQ mediators.

Row | SMILES | Solubility in Water (percent) | solubility [µg/mL] | Solubility in Water [µg/mL]
1 | O=C1C(=O)c2cccnc2-c2ncccc21 [PQ, 1,10-phenanthroline-5,6-dione, reference compound] | mg/ml (0.2%) | 2000 (≈ 9.52 mM) | –
2 | O=C1C(=O)c2cccnc2-c2ncccc21.O=C1C(=O)c2cccnc2-c2ncccc21.O=C1C(=O)c2cccnc2-c2ncccc21.[Ni+2].[O-][Cl+3]([O-])([O-])[O-].[O-][Cl+3]([O-])([O-])[O-] [[Ni(PQ)3](ClO4)2] | mg/ml (<0.05%) | – | <500
3 | CC(=O)[O-].CC(=O)[O-].O=C1C(=O)c2cccnc2-c2ncccc21.O=C1C(=O)c2cccnc2-c2ncccc21.O=C1C(=O)c2cccnc2-c2ncccc21.[Ni+2] [[Ni(PQ)3](O2CCH3)2] | mg/ml (>50%) | – | >500000
